From US5912266A, “Beta2 integrin cell adhesion molecule inhibitors” (American Home Products Corporation, priority 1997, dated 1999)
“And” between values parts separate entries of the source, which are not always exact repeats. Identical values can stand only once.

System: β2 integrin
Experiment: Adhesion of activated, β2 integrin-expressing HL60 cells to recombinant soluble ICAM-1
Type: cell-based, human
Conditions: for Percent Cells Bound: single well
Description: HL60 cells were provided by the American Type Culture Collection (ATCC No. CCL240) and were used between passages 20 to 30 as the control β2 integrin expressing cells, following stimulation for exactly four days in culture media containing dimethylsulfoxide (DMSO). Culture media was comprised of RPMI 1640 (Gibco No. 3201870AJ) supplemented with Penicillin (100 Units/ml)/Streptomycin Sulfate ([…]) (Gibco No. 600-5145AE), L-Glutamine (2 mM) (Gibco No. 320-5030PG), and 10% heat inactivated fetal bovine serum (FBS, Hyclone No. A-1111L). Fetal bovine serum was heat inactivated by incubating in a 56° C. water bath for 30 minutes. Stimulation of the expression of the β2 integrin on HL60 cells was achieved by growing the cells at a density of 2.5×10^5 cells per ml of culture media for four days in the presence of 1.25% DMSO. Following the removal of the DMSO containing media, the β2 integrin on these cells was activated to a high affinity ICAM-1 binding state by the addition of 0.1 nM of (PMA) and PMN Buffer. This buffer was comprised of Hank's balanced salt solution (HBSS) supplemented with 1.2 mM calcium chloride, 1 mM magnesium chloride, 2% glucose, […] HEPES buffer. The ICAM-1 used to measure the adhesion of β2 integrin-bearing cells was obtained from cloning and expression of recombinant, soluble, human ICAM-1 using a baculovirus expression system and standard molecular biology technology. Soluble ICAM-1 was cloned by cleaving ICAM-1 DNA, purchased from R & D Systems, with restriction enzymes to obtain DNA that codes for the soluble (non-membrane) form of the protein. […] The soluble ICAM-1 was purified by passing the media from the ICAM-1 expressing cells over an anti-ICAM-1 antibody-linked sepharose column prepared using a standard immunoaffinity chromatography kit obtained from Pierce Inc.
200 ng of purified, recombinant, soluble ICAM-1 contained in 100 μl of PBS was added to wells of a flat bottom, 96 well EIA/RIA plate (Corning No. 25801), covered with an adhesive backed plate sealer (Linbro No. 76-401-05) and incubated for at least 18 hours at 4° C. to allow ICAM-1 to bind to the assay wells, prior to the addition of the β2 integrin expressing HL60 cells.
HL60 cells were grown in 1.25% DMSO for 4 days and pelleted by centrifugation in a Sorvall RT6000 tabletop centrifuge for 5 minutes, 1000 rotations per minute (rpm), at room temperature. The resulting HL60 cell pellet was resuspended in 50 ml sterile Dulbecco's phosphate buffered saline (dPBS) (Gibco No. 310-4040AJ). The resulting cell pellet was resuspended in 50 ml dPBS and the cell concentration was determined using a hemacytometer. The cells were pelleted as described above and resuspended in PMN Buffer to 15 to 20×10^6 cells/ml. The resuspended HL60 cells were fluorescently labeled by mixing the cells with an equal volume of a 25 μM solution of Calcein AM (Molecular Probes No. C-1430) dye that had been dissolved in PMN Buffer. HL60 cells in the calcein AM solution was incubated in a 37° C. waterbath for 10 minutes with intermittent swirling of the reaction tube. The labeling reaction was stopped by the addition of 13 ml of ice-cold PMN Buffer and the cells were pelleted by centrifugation at 2000 rpm for 5 minutes at 4° C.
The labeled cell pellet was resuspended in 15 ml of ice-cold PMN Buffer and the cell density was determined using a hemacytometer. Cells were then pelleted by centrifugation at 2000 rpm for 5 minutes followed by resuspension in ice-cold PMN Buffer to 2×10^5 cells/40 μl. The labeled cell suspension was placed in the dark at room temperature while asperlin containing solutions were prepared.
Asperlin was solubilized in 100% DMSO at a concentration of 50 mg/ml. This stock was then diluted to 400 μg/ml with PMN Buffer and serial dilutions of the 400 μg/ml asperlin solution were prepared using PMN buffer containing 2% DMSO to obtain solutions ranging from 200 μg/ml to 1.56 μg/ml. […]

CC(=O)OC1C=CC(=O)OC1C1OC1C [Asperlin, 6,7-Anhydro-2,3,8-trideoxy-D-galacto-oct-2-enoic acidδ-lactone 4-acetate]
% Inhibition of Cell Adhesion (Asperlin 1.56 μg/ml): -8%
Average Percent Cells Bound (Asperlin 1.56 μg/ml): 26%
Bound Cell Fluorescence (Asperlin 1.56 μg/ml): 1551 fluorescence units/well and 1755 fluorescence units/well
Percent Cells Bound (Asperlin 1.56 μg/ml): 25% and 27%
% Inhibition of Cell Adhesion (Asperlin 3.125 μg/ml): -36%
Average Percent Cells Bound (Asperlin 3.125 μg/ml): 33%
Bound Cell Fluorescence (Asperlin 3.125 μg/ml): 1862 fluorescence units/well and 2077 fluorescence units/well
Percent Cells Bound (Asperlin 3.125 μg/ml): 32% and 34%
% Inhibition of Cell Adhesion (Asperlin 6.25 μg/ml): 29%
Average Percent Cells Bound (Asperlin 6.25 μg/ml): 17%
Bound Cell Fluorescence (Asperlin 6.25 μg/ml): 1003 fluorescence units/well and 1161 fluorescence units/well
Percent Cells Bound (Asperlin 6.25 μg/ml): 15% and 19%
% Inhibition of Cell Adhesion (Asperlin 12.5 μg/ml): 50%
Average Percent Cells Bound (Asperlin 12.5 μg/ml): 12%
Bound Cell Fluorescence (Asperlin 12.5 μg/ml): 589 fluorescence units/well and 768 fluorescence units/well
Percent Cells Bound (Asperlin 12.5 μg/ml): 10% and 13%
% Inhibition of Cell Adhesion (Asperlin 25 μg/ml): 83%
Average Percent Cells Bound (Asperlin 25 μg/ml): 4%
Bound Cell Fluorescence (Asperlin 25 μg/ml): 171 fluorescence units/well and 320 fluorescence units/well
Percent Cells Bound (Asperlin 25 μg/ml): 2.6% and 5.3%
% Inhibition of Cell Adhesion (Asperlin 50 μg/ml): 94%
Average Percent Cells Bound (Asperlin 50 μg/ml): 1.4%
Bound Cell Fluorescence (Asperlin 50 μg/ml): 82 fluorescence units/well and 77 fluorescence units/well
Percent Cells Bound (Asperlin 50 μg/ml): 1.4% and 1.3%
% Inhibition of Cell Adhesion (Asperlin 100 μg/ml): 97.5%
Average Percent Cells Bound (Asperlin 100 μg/ml): 0.6%
Bound Cell Fluorescence (Asperlin 100 μg/ml): 45 fluorescence units/well and 31 fluorescence units/well
Percent Cells Bound (Asperlin 100 μg/ml): 0.7% and 0.5%
% Inhibition of Cell Adhesion (Asperlin 200 μg/ml): 98%
Average Percent Cells Bound (Asperlin 200 μg/ml): 0.5%
Bound Cell Fluorescence (Asperlin 200 μg/ml): 29 fluorescence units/well and 28 fluorescence units/well
Percent Cells Bound (Asperlin 200 μg/ml): 0.5%
Effect on adhesion of activated β2 integrin expressing cells to ICAM-1 (in words) (summary of Table I): blocks the adhesion of activated β2 integrin expressing cells to ICAM-1
